Reference: patent US10045998B2 (BASF SE, priority 2013, dated 2018)
Where two headings read alike, the source gives them in different places. One block for each compound: values may come before it.

Columns and labels:
[1] = recent publications; quick absorption of a small fraction of the dose; cited from earlier work
[2] = Solubility of abiraterone acetate in phosphate buffer and various amounts of organic acids; type: physicochemical; conditions: for solubility: thermodynamic from solid, read-out: Solubility S
Experimental: (§1) The resulting suspension is equilibrated in a temperature-controlled Eppendorf Thermomixer Comfort shaker for 2 hours or 24 hours at 25° C. at a shaking rate of 700 rpm. After 2 hours, or 24 hours, the solid phases are recovered by filter centrifugation (0.22 μm PVDF membrane). Concentrations in the filtrate after 2 hours or 24 hours (i.e. saturated solution) are determined by HPLC using under conditions given in the below Table; limit of detection (LOD) is ca. one microgram per ml.
(§2) For the results in Table a), the medium is purified water.

[3] = biopharmaceutics classification system; report EMA/CHMP/542871/2011; cited from earlier work
[4] = Aqueous solubility in purified water, 24 h equilibration, HPLC; type: physicochemical; conditions: 25° C.; for Aqueous solubility S: 24 h equilibration, effective solubility of abiraterone acetate (corrected for formula mass), LOD ca. one microgram per ml
Experimental: as §1, §2

[5] = Dynamic (water) vapour sorption (DVS), hygroscopicity; type: physicochemical; conditions: 25° C.
Experimental: DVS: Dynamic (water) vapour sorption (DVS) is performed with a SPS11-100n (“Sorptions Prüfsystem” moisture sorption instrument from Projekt Meβtechnik, Ulm, Germany, using about 20 mg of sample material in an aluminum pan with a change rate of 5% of total relative humidity per hour. Program starting value of 50% with equilibration for 2 hours, continuously lowering to 0%, equilibration (i.e. humidity kept constant), scanning from 0% to 95%, equilibration, scanning from 95% to 0%, equilibration, scanning from 0% to 95%, equilibration, and scanning to 50% relative humidity. Sample temp. 25° C.

[6] = pKa of the organic acid / coformer; cited from earlier work

solubility ([2]; pH 3.1, aqueous buffer, phosphate buffer, no acid added, 25° C.): 2 µg/mL
solubility ([2]; phosphate buffer with ascorbic acid, pH 2.4, aqueous buffer, phosphate buffer, ascorbic acid 0.5 mol/L, 25° C.): 33 µg/mL
solubility ([2]; phosphate buffer with ascorbic acid, pH 2.8, aqueous buffer, phosphate buffer, ascorbic acid 0.1 mol/L, 25° C.): 5 µg/mL
solubility ([2]; phosphate buffer with citric acid, 25 °C, pH 2.3, aqueous buffer): 14 µg/mL
pH ([2]; phosphate buffer, ascorbic acid 0.1 mol/L): 2.8
pH ([2]; phosphate buffer, ascorbic acid 0.5 mol/L): 2.4
pH ([2]; phosphate buffer, citric acid 0.5 mol/L): 2.3
pH ([2]; phosphate buffer, no acid added): 3.1
Aqueous solubility S [4]: <LOD
Structure (SMILES): CC(=O)O[C@H]1CC[C@@]2(C)C(=CC[C@@H]3[C@@H]2CC[C@]2(C)C(c4cccnc4)=CC[C@@H]32)C1 [Abiraterone acetate, (3β)-17-(3-pyridinyl)androsta-5,16-dien-3-yl acetate]
median peak concentration, time after dosing [1]: 2 h
BCS class [3]: class IV

Structure (SMILES): CC(=O)O[C@H]1CC[C@@]2(C)C(=CC[C@@H]3[C@@H]2CC[C@]2(C)C(c4cccnc4)=CC[C@@H]32)C1.O=C(O)CC(O)C(=O)O [Example 3]
maximum water up-take at 95% r.h. [5]: less than 4%
Aqueous solubility S [4]: 13.8 microgram/ml

Aqueous solubility S [4]: 14.4 microgram/ml
pH of the saturated solution ([4]; after 24 h equilibration): 2.3
Structure (SMILES): O=C(O)/C=C\C(=O)O [Example 4, Maleic acid]

water up-take at 80% r.h. [5]: 0.1 to 0.2%
maximum water up-take at 95% r.h. [5]: less than 0.4%
Structure (SMILES): CC(=O)OC1CCC2(C)C(=CCC3C2CCC2(C)C(c4cccnc4)=CCC32)C1.O=C1NS(=O)(=O)c2ccccc21 (centres unmarked) [Example 6]

Structure (SMILES): CC(=O)O[C@H]1CC[C@@]2(C)C(=CC[C@@H]3[C@@H]2CC[C@]2(C)C(c4cccnc4)=CC[C@@H]32)C1.COc1cc(C(=O)O)ccc1O [Example 8]
water up-take at 80% r.h. [5]: about 0.2%
maximum water up-take at 95% r.h. [5]: less than 0.4%

Structure (SMILES): O=C(O)[C@H](O)[C@@H](O)C(=O)O [L-Tartaric acid, L-tartaric acid]
pKa [6]: L-Tartaric acid (2.95)
